# Test results taken from patent US7528128B2, “Pyrrolo[2,1-C][1,4]benzodiazepine hybrids and a process for the preparation thereof” (Council of Scientific & Industrial Research, priority 2006, dated 2009).
# Experiments:
# [1] = tested on: duplex-form calf thymus DNA (CT-DNA); assay: Thermal denaturation studies with CT-DNA; format: binding; conditions: for ΔTm after incubation at 37° C. for 0 h / ΔTm after incubation at 37° C. for 18 h / ΔTm after incubation at 37° C. for 36 h: [PBD]:[DNA] 1:5, CT-DNA 100 μM, ligand 20 μM; for ΔTm after incubation at 37° C. for 0 h: pH 7.00, 0 h; for ΔTm after incubation at 37° C. for 18 h: pH 7.00, 18 h; for ΔTm after incubation at 37° C. for 36 h: pH 7.00, 36 h; for course of ΔTm over 0 hr, 18 hr and 36 hr (in words): incubation at 37° C.
# Protocol: Compounds were subjected to thermal denaturation studies with duplex-form calf thymus DNA (CT-DNA) using an adaptation of a reported procedure. Working solutions in aqueous buffer (10 mM NaH2PO4/Na2HPO4, 1 mM Na2EDTA, pH 7.00+0.01) containing CT-DNA (100 μm in phosphate) and the PBD (20 μm) were prepared by addition of concentrated PBD solutions in DMSO to obtain a fixed [PBD]/[DNA] molar ratio of 1:5. The DNA-PBD solutions were incubated at 37° C. for 0, 18, and 36 h prior to analysis. Samples were monitored at 260 nm using a Beckman DU-7400 spectrophotometer fitted with high performance temperature controller, and heating was applied at 1° C. min−1 in the 40-90° C. range. DNA helix coil transition temperatures (Tm) were obtained from the maxima in the (dA260)/dT derivative plots. Results are given as the mean ±standard deviation from three determinations and are corrected for the effects of DMSO co-solvent using a linear correction term. Drug-induced alterations in DNA melting behaviour are given by: ΔTm=Tm(DNA+PBD)−Tm (DNA alone), where the Tm value for the PBD-free CT-DNA is 69.0±0.01.
# [2] = tested on: HT1080 (oral); assay: In vitro cytotoxicity, 48 h continuous drug exposure; format: cell-based, human; conditions: for Activity status in terms of IC50 value: HT1080, Oral; for cell growth by %: HT1080, relative to untreated control cells
# Protocol: (§1) In vitro evaluation of cytotoxic activity. The compound 5a, 5b, 5g, 5i and 5j were evaluated for in vitro anticancer activity against nine human tumour cells derived from six cancer types (colon, prostate, oral, lung, cervix and breast cancer) as shown in Table 3. […] Compounds 5a, 5b, 5g, 5i and 5j have been evaluated for their in vitro cytotoxicity in selected human cancer cell lines of colon (Colo205), lung (Hop-62), cervix (SiHa), prostate (DU145, PC3), oral (DWD, HT1080), and breast (MCF7, Zr-75-1) origin. A protocol of 48 h continuous drug exposure has been used and an […] has been used to estimate cell viability or growth. […] Compound 5a, Colo205 cell growth by 83%, DU145 cell growth by 84%, DWD cell growth by 70%, Hop62 cell growth by 87%, HT1080 cell growth by 80%, MCF7 cell growth by 73%, PC3 cell growth by 91%, SiHa cell growth by 67%, Zr-75-1 cell growth by 76%. Compound 5b, Colo205 cell growth by 20%, DU145 cell growth by 64%, DWD cell growth by 70%, Hop62 cell growth by 78%, HT1080 cell growth by 72%, MCF7 cell growth by 69%, PC3 cell growth by 72%, SiHa cell growth by 20%, Zr-75-1 cell growth by 20%. Compound 5g, Colo205 cell growth by 50%, DU145 cell growth by 20%, DWD cell growth by 94%, Hop62 cell growth by 84%, HT1080 cell growth by 94%, MCF7 cell growth by 71%, PC3 cell growth by 86%, SiHa cell growth by 74%, Zr-75-1 cell growth by 72%. Compound 5i, DU145 cell growth by 42%, Hop62 cell growth by 60%, HT1080 cell growth by 70%, Compound 5j, Colo205 cell growth by 44%, DU145 cell growth by 57%, DWD cell growth by 65%, Hop62 cell growth by 53%, HT1080 cell growth by 71%, PC3 cell growth by 81%, SiHa cell growth by 77%.
# [3] = tested on: SiHa (cervix); assay: as above; format: cell-based, human; conditions: for cell growth by %: relative to untreated control cells
# Protocol: as §1
# [4] = tested on: Colo205 (colon); assay: as above; format: cell-based, human; conditions: for Activity status in terms of IC50 value: Colo205, Colon; for cell growth by %: Colo205, relative to untreated control cells
# Protocol: as §1
# [5] = tested on: DWD (oral); assay: as above; format: cell-based, human; conditions: for cell growth by %: relative to untreated control cells
# Protocol: as §1
# [6] = tested on: MCF7 (breast); assay: as above; format: cell-based, human; conditions: for cell growth by %: MCF7, relative to untreated control cells
# Protocol: as §1
# [7] = tested on: Zr-75-1 (breast); assay: as above; format: cell-based, human; conditions: for cell growth by %: Zr-75-1, relative to untreated control cells
# Protocol: as §1
# [8] = tested on: PC3 (prostate); assay: as above; format: cell-based, human; conditions: for cell growth by %: PC3, relative to untreated control cells
# Protocol: as §1
# [9] = tested on: Hop62 (lung); assay: as above; format: cell-based, human; conditions: for Activity status in terms of IC50 value: Hop62, Lung; for cell growth by %: Hop62, relative to untreated control cells
# Protocol: as §1
# [10] = tested on: DU145 (prostate); assay: as above; format: cell-based, human; conditions: for Activity status in terms of IC50 value: DU145, Prostate; for cell growth by %: DU145, relative to untreated control cells
# Protocol: as §1
# [11] = tested on: selected human cancer cell lines; assay: In vitro cytotoxicity in selected human cancer cell lines (overall statements); format: cell-based; conditions: Table 3
# Protocol: as §1
Molecule,ΔTm after incubation at 37° C. for 0 h [1] [°C],ΔTm after incubation at 37° C. for 18 h [1] [°C],ΔTm after incubation at 37° C. for 36 h [1] [°C],"course of ΔTm over 0 hr, 18 hr and 36 hr (in words) [1]",Activity status in terms of IC50 value [2] [µg/mL],cell growth by % [2] [%],Activity status in terms of IC50 value ([3]; Cervix) [µg/mL],Activity status in terms of IC50 value [4] [µg/mL],Activity status in terms of IC50 value ([5]; Oral) [µg/mL],"Activity status in terms of IC50 value ([6]; MCF7, Breast) [µg/mL]","Activity status in terms of IC50 value ([7]; Zr-75-1, Breast) [µg/mL]","Activity status in terms of IC50 value ([8]; PC3, Prostate) [µg/mL]",Activity status in terms of IC50 value [9] [µg/mL],cell growth by % [9] [%],Activity status in terms of IC50 value [10] [µg/mL],cell growth by % [10] [%],cell growth by % [3] [%],cell growth by % [4] [%],cell growth by % [5] [%],cell growth by % [8] [%],also measured
"COc1cc2c(cc1OCCCCCCOc1c(Cl)cc(Cl)cc1C(=O)c1ccccc1)N=C[C@@H]1CCCN1C2=O [Compound 5i, 7-methoxy-8-{3-[2-benzoyl-(4,6-di-chlorophenyloxy)hexyloxy]}-(11aS)-1,2,3,11a-tetrahydro-5H-pyrrolo[2,1-c][1,4]benzodiazepine-5-one]",1.5,1.9,2.6,gradually increased,30,70,>80,>80,>80,>80,>80,>80,40,60,58,42,–,–,–,–,–
"COc1cc2c(cc1OCCCCOc1ccc(Cl)cc1C(=O)c1ccccc1)N=C[C@@H]1CCCN1C2=O [Compound 5b, 7-methoxy-8-{4-[2-benzoyl-(4-chlorophenyloxy)butoxy]}-(11aS)-1,2,3,11a-tetrahydro-5H-pyrrolo[2,1-c][1,4]benzodiazepine-5-one]",1.5,2.1,2.6,gradually increased,28,72,>80,32,30,31,>80,28,22,78,35,64,20,20,70,72,cell growth by % [6]: 69%; cell growth by % [7]: 20%; cytotoxicity against some cancer cell lines (in words) [11]: promising cytotoxicity
"7-methoxy-8-{3-[2-benzoyl-(4,6-dichlorophenyloxy)propoxy]}-(11aS)-1,2,3,11a-tetra hydro-5H-pyrrolo[2,1-c][1,4]benzodiazepine-5-one [Compound 5g]",1.4,1.6,2.3,gradually increased,6,94,26,50,6,29,28,14,16,84,80,20,74,50,94,86,cell growth by % [6]: 71%; cell growth by % [7]: 72%; cytotoxicity against some cancer cell lines (in words) [11]: promising cytotoxicity
"COc1cc2c(cc1O)N=CC1CCCN1C2=O (stereo not drawn) [DC-81, reference compound]",0.3,0.7,–,–,–,–,–,–,–,–,–,–,–,–,–,–,–,–,–,–,–
"COc1cccc2c1C(=O)c1c(O)c3c(c(O)c1C2=O)C[C@@](O)(C(=O)CO)C[C@@H]3O[C@H]1C[C@H](N)[C@H](O)[C@H](C)O1 [ADR, Adriamycin, reference compound]",–,–,–,–,–,–,–,–,–,–,–,–,–,–,–,–,–,–,–,–,"IC50 ([2]; Homo sapiens, HT-1080, HT1080, Oral, read-out: Activity status in terms of IC50 value): 4 µg/mL; IC50 ([3]; Homo sapiens, Cervix, read-out: Activity status in terms of IC50 value): 5 µg/mL; IC50 ([4]; Homo sapiens, COLO 205, Colo205, Colon, read-out: Activity status in terms of IC50 value): 5 µg/mL; IC50 ([5]; Homo sapiens, Oral, read-out: Activity status in terms of IC50 value): 2 µg/mL; IC50 ([6]; Homo sapiens, MCF7, Breast, read-out: Activity status in terms of IC50 value): 5 µg/mL; IC50 ([7]; Homo sapiens, Zr-75-1, Breast, read-out: Activity status in terms of IC50 value): 5 µg/mL; IC50 ([8]; Homo sapiens, PC3, Prostate, read-out: Activity status in terms of IC50 value): 5 µg/mL; IC50 ([9]; Homo sapiens, HOP-62, Hop62, Lung, read-out: Activity status in terms of IC50 value): 5 µg/mL; IC50 ([10]; Homo sapiens, DU-145, DU145, Prostate, read-out: Activity status in terms of IC50 value): 6 µg/mL"
"COc1cc2c(cc1OCC(=O)Nc1ccc(Cl)cc1C(=O)c1ccccc1Cl)N=C[C@@H]1CCCN1C2=O [Compound 5j, 7-Methoxy-8-{N1-[4-chloro-2-(2-chlorobenzoyl)phenyl]2-oxyacetamido}-(11aS)-1,2,3,11a-tetrahydro-5H-pyrrolo[2,1-c][1,4]benzodiazepine-5-one]",1.8,2.0,2.8,gradually increased,29,71,23,56,35,68,>80,19,47,53,43,57,77,44,65,81,–
